Experimental data: patent publication US11306095B2 (EAST CHINA UNIVERSITY OF SCIENCE AND TECHNOLOGY, priority 2015, dated 2022)
≈ marks a conversion by molar mass, not a printed value. Like-named read-outs stand apart in the source and are kept apart here.

Tests used:
[1] = Determination of solubility in water (PBS 20 mM, pH 6.8); assay type: physicochemical; conditions: PBS buffer, aqueous buffer, thermodynamic from solid
Experimental: The suspension was filtered through a 0.22 μm PVDF filter, and then diluted to an appropriate concentration with methanol (v=50%) and PBS (v=50%), and the absorbance was measured by a UV spectrophotometer. About 3 mg of compound was accurately weighed, and methanol was added for preparing a stock solution of 1 mg/mL. The above stock solution was taken and prepared into a solution at concentrations of 0.05, 0.04, 0.03, 0.02 and 0.01 mg/mL, respectively, PBS solution (v=50%) was added and the absorbance value was measured. Concentration c (mg/mL) as horizontal ordinate vs absorbance A as longitudinal coordinate was plotted, and a line was fitted for obtaining a standard curve (correlation coefficient greater than 0.998). The solubility of a compound in water was calculated from the standard curve.

[2] = system: H1975 cells (EGFR L858R/T790M); assay: Inhibitory activity on cell proliferation, H1975; assay type: cell-based; conditions: Homo sapiens, NCI-H1975
Experimental: (§1) Cell proliferation activity was assessed by MTS assay. Cells were exposed to processing conditions for 72 hours and the number of cells used in each experiment for each cell line was adjusted based on absorbance values (absorbance values at 490 nm, 1.3-2.2). Six concentration gradients (0.1 nM-10 μM) were set for the compounds to be tested, wherein at least 6 sets of parallel controls for each concentration were used.
(§2) H1975, A431 cells were cultured in corresponding media, and cells were passaged at least twice after resuscitation and then used for experiments. Cells at Log phase were trypsinized and resuspended in culture medium. H1975 (1000 cells per well), A431 (2000 cells per well) were seeded in 96-well plates in a volume of 100 μL; and 6 sets of parallel controls and 7 columns were set. The plate was placed in a 37° C. 5% CO2 incubator overnight. Compounds were dissolved in DMSO to a concentration of […], and then the concentration was gradually diluted to 10 μM, 1 μM, 0.1 μM, 0.01 μM, 0.001 μM, 0.0001 μM per liter, respectively. 2 μL of the compound solution was added to 998 μL of medium, and the mixture was thoroughly mixed. 100 μL of the mixture was added to a 96-well plate. […] After culturing for 68 hours, 20 μL of MTT (5 mg/mL) was added. After 4 hours, the supernatant was discarded and 150 μL of DMSO was added. After shaking for 10 minutes, the plate was read with Synergy HT (Bio TeK) (OD490). Data were calculated using GraphPad Prism version 4.0 and IC50 values were obtained using a non-linear regression model of dose response curve.

Wild type EGFR = target: T1, Wild type EGFR (Homo sapiens, UniProt P00533); assay: Kinase activity test (FRET), wild type EGFR; assay type: biochemical
T1 construct: purchased Invitrogen PV3872
Experimental: (§3) EGFR-TK catalyses transfer of one phosphate group of adenosine triphosphate (ATP) to polypeptide substrate, poly(Glu, Tyr)4:1, which is labeled with two fluorescent groups coumarin and fluorescein.
(§4) 2.5 μL of Test Compounds, 5 μL Kinase/Peptide Substrate Mixture, 2.5 μL ATP Solution were added into a 384-well plate, and the 10 μL of reaction system was shaken for 30 s and incubated at room temperature for 1 h. 5 μL of Development Solution was added and the 15 μL of reaction system was shaken for 30 s, and incubated at room temperature for 1 h. […] The inhibitory rates of the compounds at 7 concentration gradients were determined and the IC50 value for each compound was calculated by Origin 8.0 fitting curve.
(§5) 10 concentration gradients from 5.1×10^−11 mol/L to 1.0×10^−6 mol/L were set for all compounds to be tested.
(§6) Compounds were diluted in DMSO for three times from 5.1×10^−9 M to 1×10^−4 M. 4 μL of the compound was dissolved in 96 μL of water to obtain a 4× compound solution. […] The 10 μL kinase reaction consisted of 2.5 μL compound solution, 5 μL kinase/peptide mix, 2.5 μL ATP solution. […] 5 μL of phosphorylated peptide solution, instead of the kinase/peptide mixture, was used as a 100% phosphorylation control. […] The plates were thoroughly mixed and incubated at room temperature for 1.5 hours. 5 μL of Development Solution was added into each well and then incubated for another 1 hour at room temperature, unphosphorylated peptides were cleaved during this period. Finally, 5 μL Stop Reagent was added to quench the reaction. The plates were measured with EnVision Multilabel Reader (Perkin Elmer). The experimental data were calculated using GraphPad Prism version 4.0. Each experiment was repeated more than 3 times.

EGFR-L858R/T790M = target: T2, EGFR-L858R/T790M (Homo sapiens, UniProt P00533, L858R/T790M); assay: Kinase activity test (FRET), EGFR T790M/L858R; assay type: biochemical
T2 construct: purchased Invitrogen PV4879
Experimental: as §3, §4, §5, §6

[3] = system: A431 cells (EGFR wild type); assay: Inhibitory activity on cell proliferation, A431; assay type: cell-based; conditions: Homo sapiens, A-431
Experimental: as §1, §2

[4] = pH 6.8, 20 mM PBS, read-out: Solubility (pH 6.8, g/mL)
[5] = H1975, 72 hours, read-out: Inhibitory activity on proliferation of cells (IC50, μM) H1975
[6] = wild type EGFR, read-out: Inhibitory activity of EGFR on kinase (IC50, nM) WT
[7] = EGFR T790M/L858R, read-out: Inhibitory activity of EGFR on kinase (IC50, nM) T790M/L858R
[8] = A431, 72 hours, read-out: Inhibitory activity on proliferation of cells (IC50, μM) A431
[9] = Compound 53 before and after resolution, read-out: Inhibitory IC50 means (μM) ± SD value on tumor cell growth activity NCI-H1975
[10] = Compound 53 before and after resolution, read-out: Inhibitory IC50 means (nM) ± SD value on tyrosine kinase activity EGFR
[11] = Compound 53 before and after resolution, read-out: Inhibitory IC50 means (nM) ± SD value on tyrosine kinase activity EGFR/T790M/L858R
[12] = Compound 53 before and after resolution, read-out: Inhibitory IC50 means (μM) ± SD value on tumor cell growth activity A431
[13] = wild type EGFR, read-out: Inhibitory activity of EGFR on kinase (IC50) WT
[14] = EGFR T790M/L858R, read-out: Inhibitory activity of EGFR on kinase (IC50) T790M/L858R

T1 sequence (P00533 25-1210): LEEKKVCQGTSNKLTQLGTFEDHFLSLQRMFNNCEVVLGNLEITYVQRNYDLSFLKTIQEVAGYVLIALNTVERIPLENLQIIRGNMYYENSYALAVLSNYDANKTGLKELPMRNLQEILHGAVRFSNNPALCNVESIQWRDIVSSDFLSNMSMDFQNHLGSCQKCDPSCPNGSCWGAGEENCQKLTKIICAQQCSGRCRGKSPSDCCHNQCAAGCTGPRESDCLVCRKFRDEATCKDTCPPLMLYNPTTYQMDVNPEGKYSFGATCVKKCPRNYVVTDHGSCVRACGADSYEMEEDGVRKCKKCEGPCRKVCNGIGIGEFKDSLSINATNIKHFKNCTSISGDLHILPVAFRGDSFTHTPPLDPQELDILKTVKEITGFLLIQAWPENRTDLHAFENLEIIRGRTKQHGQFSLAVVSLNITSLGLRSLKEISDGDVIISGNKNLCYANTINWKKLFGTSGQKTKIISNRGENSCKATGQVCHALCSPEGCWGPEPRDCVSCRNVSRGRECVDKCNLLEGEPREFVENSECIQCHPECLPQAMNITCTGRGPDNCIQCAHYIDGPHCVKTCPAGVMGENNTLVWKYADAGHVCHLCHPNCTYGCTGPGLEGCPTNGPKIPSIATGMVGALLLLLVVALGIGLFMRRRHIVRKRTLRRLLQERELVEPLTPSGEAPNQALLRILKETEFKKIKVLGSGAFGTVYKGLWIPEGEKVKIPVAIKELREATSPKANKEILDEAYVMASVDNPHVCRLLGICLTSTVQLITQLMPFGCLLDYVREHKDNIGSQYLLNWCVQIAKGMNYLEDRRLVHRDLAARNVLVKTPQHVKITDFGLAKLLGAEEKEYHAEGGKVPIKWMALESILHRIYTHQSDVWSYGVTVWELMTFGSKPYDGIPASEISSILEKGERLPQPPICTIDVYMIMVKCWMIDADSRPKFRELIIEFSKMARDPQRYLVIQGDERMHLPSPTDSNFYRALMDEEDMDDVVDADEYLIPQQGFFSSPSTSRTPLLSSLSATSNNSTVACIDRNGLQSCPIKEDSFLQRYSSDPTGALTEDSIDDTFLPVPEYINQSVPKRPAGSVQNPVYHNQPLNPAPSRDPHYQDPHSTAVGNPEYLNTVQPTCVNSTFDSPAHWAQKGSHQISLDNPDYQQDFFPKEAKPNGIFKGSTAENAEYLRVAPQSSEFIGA
T2 sequence (P00533 25-1210 T790M/L858R): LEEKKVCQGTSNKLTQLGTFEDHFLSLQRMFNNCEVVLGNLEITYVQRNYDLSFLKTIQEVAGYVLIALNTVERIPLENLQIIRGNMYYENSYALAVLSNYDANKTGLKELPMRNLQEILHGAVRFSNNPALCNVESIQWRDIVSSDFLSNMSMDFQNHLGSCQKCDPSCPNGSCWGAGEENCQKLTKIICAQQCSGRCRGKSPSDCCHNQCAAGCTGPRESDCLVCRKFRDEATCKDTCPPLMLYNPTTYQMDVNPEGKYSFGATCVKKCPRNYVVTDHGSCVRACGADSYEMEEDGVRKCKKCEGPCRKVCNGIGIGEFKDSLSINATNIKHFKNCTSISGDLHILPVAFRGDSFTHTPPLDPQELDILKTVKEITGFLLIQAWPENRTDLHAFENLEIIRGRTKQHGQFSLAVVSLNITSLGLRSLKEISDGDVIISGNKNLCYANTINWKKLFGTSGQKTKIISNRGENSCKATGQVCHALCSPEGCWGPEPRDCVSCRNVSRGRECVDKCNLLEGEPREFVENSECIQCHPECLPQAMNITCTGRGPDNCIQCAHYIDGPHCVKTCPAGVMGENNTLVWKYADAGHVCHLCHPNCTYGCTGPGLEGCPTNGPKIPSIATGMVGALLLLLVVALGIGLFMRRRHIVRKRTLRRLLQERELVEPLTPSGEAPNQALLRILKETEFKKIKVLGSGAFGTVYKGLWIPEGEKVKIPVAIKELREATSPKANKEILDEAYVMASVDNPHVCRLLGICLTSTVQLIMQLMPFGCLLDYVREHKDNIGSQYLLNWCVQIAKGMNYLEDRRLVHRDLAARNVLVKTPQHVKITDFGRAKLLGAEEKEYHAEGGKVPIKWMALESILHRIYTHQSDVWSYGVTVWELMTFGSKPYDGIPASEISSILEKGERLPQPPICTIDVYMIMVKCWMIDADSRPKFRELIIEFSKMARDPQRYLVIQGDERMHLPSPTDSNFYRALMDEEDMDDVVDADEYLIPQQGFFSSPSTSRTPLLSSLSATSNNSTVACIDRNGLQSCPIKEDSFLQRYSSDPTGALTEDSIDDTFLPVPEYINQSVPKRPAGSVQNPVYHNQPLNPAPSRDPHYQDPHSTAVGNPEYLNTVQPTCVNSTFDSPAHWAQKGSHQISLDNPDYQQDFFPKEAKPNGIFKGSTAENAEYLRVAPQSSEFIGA

SMILES	solubility [1, 4] [µg/mL]	IC50 [2, 5] [µM]	IC50 (Wild type EGFR; [6]) [nM]	IC50 (EGFR-L858R/T790M; [7]) [nM]	IC50 [3, 8] [µM]	further results
C=CC(=O)Nc1cc(Nc2ncc3nc(C(C)C)c(=O)n(C)c3n2)c(OC)cc1N(C)CCN(C)C [Compound 23]	1690 (≈ 3410 µM)	1.85	1730	939	3.2	–
C=CC(=O)N1CC[C@H](n2c(=O)c(-c3ccccc3)nc3cnc(Nc4ccc(N5CCN(C)CC5)c(C)c4)nc32)C1 [Compound 25, (S)-8-(1-acryloyl-3-pyrrolidinyl)-2-((3-methyl-4-(4-methyl-1-piperazinyl)phenyl)amino)-6-phenyl-7(8H)-pteridinone]	56.7 (≈ 103 µM)	0.016	65.2	1.5	1.75	–
C=CC(=O)N1CCC[C@@H](Cn2c(=O)c(-c3ccccc3)nc3cnc(Nc4ccc(N5CCN(C)CC5)cc4OC)nc32)C1 [53-1 (R)]	–	–	–	–	–	IC50 [2, 9]: > 10 µM; IC50 (Wild type EGFR; [10]): 273 ± 38 nM; IC50 (EGFR-L858R/T790M; [11]): 295 ± 85 nM; IC50 [3, 12]: 5.31 ± 1.04 µM
C=CC(=O)N1CC[C@H](n2c(=O)c(-c3ccccc3)nc3cnc(Nc4ccc(N5CCN(C)CC5)cc4OC)nc32)C1 [Compound 27, (S)-8-(1-acryloyl-3-pyrrolidinyl)-2-((2-methoxy-4-(4-methyl-1-piperazinyl)phenyl)amino)-6-phenyl-7(8H)-pteridinone]	264 (≈ 465 µM)	0.116	53.7	3.8	1.85	–
Cc1cc(Nc2ncc3nc(-c4ccccc4)c(=O)n([C@H]4CCN(C(=O)/C=C/CN(C)C)C4)c3n2)ccc1N1CCN(C)CC1 [Compound 29, (S,E)-8-(1-(4-(dimethylamino)-2-butenoyl)-3-pyrrolidinyl)-2-((3-methyl-4-(4-methyl-1-piperazinyl)phenyl)amino)-6-phenyl-7(8H)-pteridinone]	438 (≈ 720 µM)	3.09	177	791	1.6	–
C=CC(=O)Nc1cccc(-n2c(=O)c(-c3ccccc3)nc3cnc(Nc4ccc(N(C)CCN(C)C)cc4OC)nc32)c1 [Compound 20, N-(3-(2-((4-((2-(dimethylamino)ethyl)(methyl)amino)-2-methoxyphenyl)amino)-7-oxo-6-phenyl-8(7H)-pteridinyl)phenyl)acrylamide]	7.4 (≈ 12.5 µM)	0.04	15	1.3	6	–
C=CC(=O)N1CCC[C@H](n2c(=O)cnc3cnc(Nc4ccc(N5CCN(C)CC5)cc4OC)nc32)C1 [Compound 3]	> 11400	33.7	–	–	60.6	IC50 (Wild type EGFR; [13]): > 10000 nM; IC50 (EGFR-L858R/T790M; [14]): > 10000 nM
C=CC(=O)Nc1cccc(-n2c(=O)cnc3cnc(Nc4ccc(N5CCC(N(C)C)CC5)cc4OC)nc32)c1 [Compound 12]	369 (≈ 683 µM)	0.006	3.5	6.2	2.52	–
C=CC(=O)Nc1cccc(-n2c(=O)cnc3cnc(Nc4ccc(N5CCN(C)CC5)c(OC)c4)nc32)c1 [Compound 4]	–	0.009	4.5	–	0.94	solubility ([1]; 20 mM phosphate buffer, pH 6.8, read-out: solubility in water): 1370 µg/mL (≈ 2670 µM); IC50 ([2]; H1975 (EGFR-T790M/L858R), read-out: IC50 of inhibiting proliferation of H1975 cells): 0.009 µM; IC50 (EGFR-L858R/T790M; read-out: IC50 of inhibitory activity on EGFR-T790M/L858R kinase): 3.9 nM
COc1cc(N2CCN(C)CC2)ccc1Nc1ncc2nc(C(C)C)c(=O)n([C@H]3CCN(C(=O)/C=C/CN(C)C)C3)c2n1 [Compound 28]	3970 (≈ 6730 µM)	8.38	> 10000	> 10000	> 10	–
C=CC(=O)Nc1cccc(-n2c(=O)cnc3cnc(Nc4ccc(N5CCN(CCO)CC5)cc4OC)nc32)c1 [Compound 11, N-(3-(2-((4-(4-(2-hydroxyethyl)-1-piperazinyl)-2-methoxyphenyl)amino)-7-oxo-8 (7H)-pteridinyl)phenyl)acrylamide]	48.6 (≈ 89.6 µM)	0.2	2.2	7.3	8.09	–
C=CC(=O)N1CC[C@@H](n2c(=O)cnc3cnc(Nc4ccc(N5CCN(C)CC5)cc4OC)nc32)C1 [Compound 2]	11100 (≈ 22600 µM)	18.2	–	–	89.6	IC50 (Wild type EGFR; [13]): > 10000 nM; IC50 (EGFR-L858R/T790M; [14]): > 10000 nM
C=CC(=O)Nc1cccc(-n2c(=O)cnc3cnc(Nc4ccc(N5CCN(C(C)=O)CC5)cc4OC)nc32)c1 [Compound 7, N-(3-(2-((4-(4-acetyl-1-piperazinyl)-2-methoxyphenyl)amino)-7-oxo-8(7H)-pteridinyl)phenyl)acrylamide]	< 25	0.197	45.2	9.5	20.5	–
C=CC(=O)Nc1cccc(-n2c(=O)c(C3CCCCC3)nc3cnc(Nc4ccc(N5CCN(C)CC5)cc4OC)nc32)c1 [Compound 43, N-(3-(6-cyclohexyl-2-((2-methoxy-4-(4-methyl-1-piperazinyl)phenyl)amino)-7-oxo-8(7H)pteridinyl)phenyl)acrylamide]	< 10	0.112	7.7	0.6	0.433	–
C=CC(=O)N1CCC(n2c(=O)cnc3cnc(Nc4ccc(N5CCN(C)CC5)cc4OC)nc32)CC1 [Compound 15, 8-(1-acryloyl-4-piperidinyl)-2-((2-methoxy-4-(4-methyl-1-piperazinyl)phenyl)amino)-7(8H)-pteridinone]	514 (≈ 1020 µM)	–	2300	2250	–	–
C=CC(=O)N1CCC[C@H](Cn2c(=O)c(-c3ccccc3)nc3cnc(Nc4ccc(N5CCN(C)CC5)cc4OC)nc32)C1 [53-2 (S)]	–	–	–	–	–	IC50 [2, 9]: 0.062 ± 0.012 µM; IC50 (Wild type EGFR; [10]): 8 ± 0.8 nM; IC50 (EGFR-L858R/T790M; [11]): 15.2 ± 2.3 nM; IC50 [3, 12]: > 10 µM
C=CC(=O)N1CCCC(n2c(=O)c(-c3ccccc3)nc3cnc(Nc4ccc(N5CCN(C)CC5)cc4OC)nc32)C1 (stereo not drawn) [Compound 58, 8-(1-acryloyl-3-piperidinyl)-2-((2-methoxy-4-(4-methyl-1-piperazinyl)phenyl)amino)-6-phenyl-7(8H)pteridinone]	< 10	–	–	–	–	–
